Tests used:
[1] = tested on: inflammed rat air pouches (serum-treated zymozan); assay: Rat air pouch assay; format: in vivo, rats (Dark Agouti); conditions: 0.5 ml of 100 μM into pouch; for Polymorphs in tissue sections (per 100 squares): 4 h; for Leucocytes in lavage fluid (×10^−7): lavage at 4 h
Procedure: An alternative assay used to measure anti-inflammatory efficacy is the air pouch model which involves the repeated subcutaneous injection of air into the dorsum of rats followed 24 h later by the intrapouch injection of an inflammatory stimulus (Gilroy et al. 1998).
Air pouches were raised on the dorsum of female Dark Agouti rats, approximately 7 weeks of age. To promote the formation of a cellular membrane lining the inside of each pouch, the pouches were maintained by re-inflating on days 2 and 5 after the initial injection of air. On re-inflation, the pouch was first deflated to ensure the needle was positioned correctly, before being re-inflated with 2 mL of sterile air. Using this protocol, the pouches remained inflated until use on day 7, when they were injected with 0.5 ml of either test compound at 100 μM or vehicle control. After 15 min, air pouches were injected with serum-treated zymozan (STZ-500 μg). Lavage of the air pouch (4×2 ml lavages) was performed at 4 h and leucocytes counted, after which the rats were killed, the air pouch excised and processed in formalin for histology. The sections were blinded to the person counting. Using a graticule with 100 squares and the 40× objective, the number of polymorphs were counted in the pouch lining at 10 different and non-adjacent sites. Group sizes were 5-6 rats. Data were analysed for statistical significance within each experiment and using an unpaired t test.

DSS-induced colitis = assay: Murine model of DSS-induced colitis; format: in vivo, mice (BALB/c); conditions: for inflammation, in words: Experiment 2, 1 mg/kg for 10 days prior to DSS only; for colonic inflammation, in words: series of experiments, 1.0-1.25 mg/kg single oral dose per day; for maximum mean weight loss: vehicle 5%; for day at which clinical signs became evident: vehicle day 5; for colitis, in words: Experiment 1, 1 mg/kg throughout until day 17; for mean clinical score compared with vehicle, in words: Experiment 1, day 11; for day of switch from mean body weight loss to mean body weight gain: Experiment 1, vehicle day 15
Procedure: Female BALB/c mice, 6-7 weeks old, were housed for a minimum of one week before any experimental work began. To induce colitis, dextran sulphate sodium (DSS—molecular weight 40 kD, TdB Consultancy AB, Uppsala, Sweden (Dieleman et al. 1994), was administered fresh daily in the drinking water at a concentration of 4.5-5% for 5 days (Okayasu et al. 1990), after which water alone was given. This regime induced mild colitis, evidenced by diarrhea and rectal bleeding, the severity of which was scored, as well as a reduction in the length of the colon. Histologically, colonic inflammation was evidenced by ulceration and an infiltration of neutrophils into the mucosa, which was also scored. The systemic effect of the colitis causes weight loss, which was also monitored.
Either vehicle (PEG 400:PBS1:1) Compounds 1 or 4 were administered at a dose rate of 1 mg/kg throughout the experiment until the mice were killed at day 17.
Either Compounds 1 and 2, at a dose of 1 mg/kg or vehicle were administered for 10 days prior to DSS being added to the drinking water to induce colitis, after which test compound was stopped. DSS was administered for 5 days and the mice killed 8 days later (day 23).
Either the cis or the trans isomers of Compound 3 (Compound 3a and 3b respectively) at 1.25 mg/kg or vehicle were administered throughout the experiment until the mice were killed at day 17.

female BALB/c mice = assay: Absence of gastrointestinal toxicity, gavage for 10 days; format: in vivo; conditions: 5 mg/kg via gavage for 10 days
Procedure: Compound 2 at 5 mg/kg (n=3) or vehicle (PEG 400:PBS1:1; n=2) was administered via gavage to female BALB/c mice for 10 days. […] Histology of cecum and colon were normal.
The diastereoisomeric mixture of Compounds 3a and 3b in PEG 400:PBS1:1 was administered to 7 week old female BALB/c mice (n=8) by gavage at 20 mg/kg daily for 10 days. There was no vehicle control group for comparison.
Compound 4 at 5 mg/kg (n=3) or vehicle (n=2, PEG:PBS 1:1) was administered via gavage to female BALB/c mice for 10 days. […] Histology of cecum and colon were normal.

[2] = tested on: inflammed rat air pouches (serum-treated zymozan); assay: Rat air pouch assay; format: in vivo, rats (Dark Agouti); conditions: At 1 mM application
[3] = tested on: contractile response of the aortic ring to noradrenaline; assay: Vasodilatory activity in the rat aortic ring assay; parameters: species or system rat (Sprague-Dawley); conditions: test compound 1 μg/ml
Procedure: The vasodilatory capacity of test compounds was examined ex vivo using the rat aortic ring assay.
Male Sprague-Dawley rats (250±50 g) were euthanized with 80% CO2 and 20% O2. The thoracic aorta was excised and quickly mounted in organ-baths as described (Chin-Dusting et al. 2001). Full concentration-contractile curves were obtained to noradrenaline ([…]) with and without test compounds delivered at a concentration of 1 μg/ml. Experiments were repeated in n=5 different rings from 5 different animals. Only one compound at any one concentration was tested on any one ring from any one animal. Sigmoidal dose response curves were fitted for the data and the logEC50 calculated (Prism 4, GraphPad Software). The difference in these values between the presence and absence of test compound was calculated using a two-tailed paired t test. The effects of β-oestrodiol and vehicle alone were examined as a positive and negative control respectively.

Sprague Dawley rats = assay: Oral toxicity of Compound 1 administered daily for 11 days; format: in vivo; conditions: 300 mg/kg and 1000 mg/kg oral daily for 11 days in CMC 0.1%
Procedure: Oral toxicity of Compound 1 when administered daily for 11 days was investigated. Compound 1 in CMC 0.1% as administered at the very high doses of 300 mg/kg and the limit dose of 1000 mg/kg to groups of four Sprague Dawley rats (two of each gender). Vehicle was administered to a third group.
The formulation of Compound 1 in CMC 0.1% was stable over a seven day period at both 4° C., 25° C. and 40° C. Fresh batches of Compound 1 were supplied after day seven. Bodyweights were measured immediately before administration, then at day eight and again at culling on day 12. All rats were observed daily for signs of toxicity throughout the experimental period. At necropsy, gross examination of the external surface of the body, all orifices and the thoracic and abdominal cavities and their contents was carried out. Liver, kidney, adrenals, spleen and gonads were weighed. Terminal hematology, serum biochemistry and histology of the liver, spleen and bone marrow was done.

SMILES	Polymorphs in tissue sections (per 100 squares) [1] [per 100 squares]	Leucocytes in lavage fluid (×10^−7) [1]	inflammation, in words (DSS-induced colitis)	colonic inflammation, in words (DSS-induced colitis)	adverse clinical signs (female BALB/c mice)	body weight changes versus vehicle (female BALB/c mice)	gross pathological changes at necropsy (female BALB/c mice)	histology of cecum and colon (female BALB/c mice)	number of polymorphs in the tissue sections, in words [2]	colon length compared with vehicle (trend), in words (DSS-induced colitis; Experiment 1, 1 mg/kg oral)	mean histology scores, in words (DSS-induced colitis; Experiment 1, 1 mg/kg oral)	maximum mean weight loss (DSS-induced colitis; Experiment 1, 1 mg/kg oral) [%]	day at which clinical signs became evident (DSS-induced colitis; Experiment 1, 1 mg/kg oral) [days]	colitis, in words (DSS-induced colitis)	mean clinical score compared with vehicle, in words (DSS-induced colitis)	day of switch from mean body weight loss to mean body weight gain (DSS-induced colitis) [days]	further results
Oc1ccc(C2COc3c(ccc(O)c3O)C2O)cc1 (stereo not drawn) [Compound 2]	14.3 ± 5.7	0.68 ± 0.36 ×10^−7	Inflammation was reduced	reduced colonic inflammation	no adverse clinical signs	similar	no gross pathological changes	normal	suppressed the number of polymorphs								body weight versus vehicle (DSS-induced colitis; Experiment 2, day 22): weighed significantly more than those receiving vehicle (p=0.0291); body weight loss associated with DSS-induced colonic inflammation (DSS-induced colitis; Experiment 2, pre-dosed 1 mg/kg for 10 days): reduced the body weight loss
O=C1c2ccc(O)c(Br)c2OCC1c1ccc(O)cc1 (stereo not drawn) [Compound 1, 3-(4-hydroxyphenyl)-7-hydroxy-8-bromo-chroman-4-one]	31.0 ± 7.25	0.89 ± 0.42 ×10^−7	Inflammation was reduced	reduced colonic inflammation						longer	less colitis	2	6	decreased colitis	significantly lower	10	comparative anti-inflammatory activity between test compounds (DSS-induced colitis; Experiment 1, 1 mg/kg): better anti-inflammatory activity; ulceration of the colonic epithelium compared with vehicle (DSS-induced colitis; Experiment 1, 1 mg/kg oral): statistically significant (p=0.0135) less ulceration; colon length versus control group not given DSS (DSS-induced colitis; Experiment 2, pre-dosed 1 mg/kg): not statistically different in length from those of the control group; contractile response (logEC50) of the aortic ring to noradrenaline compared with vehicle [3]: significantly inhibited; evidence of toxicity (Sprague Dawley rats): no evidence of toxicity of any kind
O=C1c2cc(Cl)c(O)cc2OCC1c1ccc(O)cc1 (stereo not drawn) [Compound 4]	23.4 ± 8.8	1.00 ± 0.38 ×10^−7		reduced colonic inflammation	no adverse clinical signs	similar	no gross pathological changes	normal	suppressed the number of polymorphs	longer	less colitis	1	6	decreased colitis	significantly lower	12	
